Laboratory results from US9278903B2, “Crystal form of prostaglandin analogue, and preparation method and use thereof” (Shanghai Techwell Biopharmaceutical Co., Ltd., priority 2012, dated 2016).

What was measured:
[1] = cited from earlier work
[2] = Storage stability of crystalline form A (HPLC); assay type: physicochemical
Description: (§1) Column: 4.6×250 mm 5 μm C18 column; flow rate: 2 ml/min; injection volume: 10 μl; column temperature: 35° C.; detection wavelength: 217 nm; mobile phase: acetonitrile/water/trifluoroacetic acid; Elution condition: water (60%): acetonitrile (40%): trifluoroacetic acid (0.1%); detection limit: 10 ng.
[…] […] Therefore, crystalline form A of compound I prepared by the method of the present invention has unique stability.

[3] = Stability comparison at 40° C. (HPLC purity); assay type: physicochemical
Description: as §1
The purity mentioned in the following Examples is HPLC purity.
Compound I from example 2, example 3 and example 4 were obtained, and subjected to stability test at 40° C., respectively. […] Therefore, crystalline form A of compound I prepared by the method of the present invention has unique stability.

[4] = cited from earlier work; remark: listed apart in the source

Structure (SMILES): CCCCC[C@H](O)/C=C/[C@@H]1[C@H]2C/C(=C/CCCC(=O)O)O[C@H]2C[C@H]1O [Epoprostenol]
- Half-life in circulation [1]: 3 to 5 min

Structure (SMILES): CCCCC[C@H](O)CC[C@@H]1[C@H]2Cc3cccc(OCC(=O)O)c3C[C@H]2C[C@H]1O [Example 4]
- Degradation on storage (HPLC) ([2]; stored at 0° C. for 12 months): did not degrade at all
- Degradation on storage (HPLC) ([2]; stored at 20° C. for 6 months): did not degrade at all
- Degradation on storage (HPLC) ([2]; stored at 40° C. for 2 months): did not degrade at all
- Purity at 0 day (40° C.) ([3]; 0 day): 99.90%
- Purity at 10 day (40° C.) ([3]; 10 day): 99.91%
- Purity at 30 day (40° C.) ([3]; 30 day): 99.89%
- Purity at 90 day (40° C.) ([3]; 90 day): 99.88%

Structure (SMILES): CCCCC[C@H](O)CC[C@@H]1[C@H]2Cc3cccc(OCC(=O)O)c3C[C@H]2C[C@H]1O [Treprostinil]
- Stability under physiological conditions [4]: stable under physiological conditions
